Assay results taken from the supplement of paper PMC5908809.

Assays:
[1] = test system: normal NK cells expanded with K562-aAPC; assay: drug sensitivity score (DSS) (DSS units); higher = more sensitive; extreme values may be limits of the assay; settings: 72 h; IL-2 2.5 ng/mL
Protocol: (§1)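 Drug sensitivity and resistance testing on K562-aAPC-expanded normal NK cells: 5 concentrations (10-fold steps over a 10,000-fold range), 72 h at 37 °C, viability by CellTiter-Glo normalised to DMSO and benzethonium chloride controls; DSS from the fitted curve.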

IMC-1 (IL-2 20 ng/mL) [2] = assay: as above; settings: 72 h
NKL (IL-2 2.5 ng/mL) [3] = assay: as above; settings: 72 h
[4] = test system: normal primary NK cells, pool 3 (3 donors) (IL-2 2.5 ng/mL); assay: as above; settings: 72 h
NK-YS (IL-2 2.5 ng/mL) [5] = assay: as above; settings: 72 h
KHYG-1 (IL-2 2.5 ng/mL) [6] = assay: as above; settings: 72 h
DERL-7 (IL-2 2.5 ng/mL) [7] = assay: as above; settings: 72 h
NK-92 (IL-2 2.5 ng/mL) [8] = assay: as above; settings: 72 h
YT (IL-2 2.5 ng/mL) [9] = assay: as above; settings: 72 h
[10] = test system: normal primary NK cells, pool 2 (3 donors) (IL-2 2.5 ng/mL); assay: as above; settings: 72 h
KAI3 (IL-2 2.5 ng/mL) [11] = assay: as above; settings: 72 h
[12] = test system: normal primary NK cells, pool 1 (3 donors), resting (IL-2 0 ng/mL); assay: as above; settings: 72 h
SNK-6 (IL-2 2.5 ng/mL) [13] = assay: as above; settings: 72 h
[14] = test system: normal primary NK cells, pool 1 (3 donors) (IL-2 2.5 ng/mL); assay: as above; settings: 72 h
IMC-1 (IL-2 20 ng/mL) [15] = assay: percent inhibition of viability; higher = more inhibition; settings: 72 h
NKL (IL-2 2.5 ng/mL) [16] = assay: as above; settings: 72 h
[17] = test system: normal primary NK cells, pool 3 (3 donors) (IL-2 2.5 ng/mL); assay: as above; settings: 72 h
NK-YS (IL-2 2.5 ng/mL) [18] = assay: as above; settings: 72 h
KHYG-1 (IL-2 2.5 ng/mL) [19] = assay: as above; settings: 72 h
DERL-7 (IL-2 2.5 ng/mL) [20] = assay: as above; settings: 72 h
NK-92 (IL-2 2.5 ng/mL) [21] = assay: as above; settings: 72 h
YT (IL-2 2.5 ng/mL) [22] = assay: as above; settings: 72 h
[23] = test system: normal primary NK cells, pool 2 (3 donors) (IL-2 2.5 ng/mL); assay: as above; settings: 72 h
KAI3 (IL-2 2.5 ng/mL) [24] = assay: as above; settings: 72 h
[25] = test system: normal primary NK cells, pool 1 (3 donors), resting (IL-2 0 ng/mL); assay: as above; settings: 72 h
SNK-6 (IL-2 2.5 ng/mL) [26] = assay: as above; settings: 72 h
[27] = test system: normal primary NK cells, pool 1 (3 donors) (IL-2 2.5 ng/mL); assay: as above; settings: 72 h
[28] = test system: normal NK cells expanded with K562-aAPC; assay: as above; settings: 72 h, IL-2 2.5 ng/mL
Protocol: as §1

CO[C@H]1/C=C\C=C(/C)C(=O)NC2=CC(=O)C(NCCN(C)C)=C(C[C@@H](C)C[C@H](OC)[C@H](O)[C@@H](C)/C=C(\C)[C@@H]1OC(N)=O)C2=O [Alvespimycin] (max concentration tested 1000 nM)
Settings | drug sensitivity score
DERL-7 (IL-2 2.5 ng/mL) [7] | 15.1
IMC-1 (IL-2 20 ng/mL) [2] | 8.22
KAI3 (IL-2 2.5 ng/mL) [11] | 15.7
KHYG-1 (IL-2 2.5 ng/mL) [6] | 12.2
NK-92 (IL-2 2.5 ng/mL) [8] | 13.3
NK-YS (IL-2 2.5 ng/mL) [5] | 19.2
NKL (IL-2 2.5 ng/mL) [3] | 16.4
SNK-6 (IL-2 2.5 ng/mL) [13] | 19.9
YT (IL-2 2.5 ng/mL) [9] | 9.86
[1] | 13.3
[4] | 10.3
[10] | 14.8
[12] | 7.28
[14] | 15.5

percent inhibition of viability [%]
Settings | 0.1 nM | 1 nM | 10 nM | 100 nM | 1000 nM
DERL-7 (IL-2 2.5 ng/mL) [20] | -2.47 | -2.74 | 9.85 | 73.2 | 101
IMC-1 (IL-2 20 ng/mL) [15] | -5.23 | 4.85 | 1.66 | 16.1 | 101
KAI3 (IL-2 2.5 ng/mL) [24] | 3.95 | 3.1 | 8.75 | 78.1 | 104
KHYG-1 (IL-2 2.5 ng/mL) [19] | -3.99 | 2.16 | 2.52 | 55.2 | 107
NK-92 (IL-2 2.5 ng/mL) [21] | -5.39 | 0.79 | 7.9 | 62.4 | 105
NK-YS (IL-2 2.5 ng/mL) [18] | -5 | 5.02 | 9.34 | 96.8 | 105
NKL (IL-2 2.5 ng/mL) [16] | -9.27 | 5.22 | 1.11 | 89.3 | 90.7
SNK-6 (IL-2 2.5 ng/mL) [26] | 11.2 | 9.82 | 13.6 | 97.6 | 91.2
YT (IL-2 2.5 ng/mL) [22] | -0.99 | 6.65 | 4.58 | 35.5 | 97
[17] | -14.3 | -9.11 | 6.58 | 46.3 | 85.2
[23] | -14.3 | -3.64 | 14.4 | 68.9 | 82.6
[25] | 9.61 | -5.61 | 24.6 | 26.1 | 42
[27] | 9.22 | -0.64 | 16.4 | 73 | 87
[28] | -6.1 | -4.9 | -1.57 | 67.3 | 100
